Measurements reported in PubChem BioAssay AID250 (DTP/NCI, 2004).
Where “and” joins values, the source holds several entries; their conditions need not be identical. Identical values can stand only once. Toxic doses and inconclusive results are not listed.

System: BDF1 mice, L1210 leukemia sc, survival T/C
Assay: NCI In Vivo Anticancer Drug Screen. Data for tumor model L1210 Leukemia (subcutaneous) in B6D2F1 (BDF1) mice
Details: endpoint: median survival time, vehicle: water, higher = longer survival
Procedure, shortened: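 Tumors were transplanted into mice, the animals were treated with compound, survival or tumor size was then measured, and treated values were divided by vehicle-control values.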

Compound: O=P1(NCCCl)OCCCN1CCCl (centres undefined)
- T/C (dose: 7.8 mg/kg/injection, schedule: Q03HX008 (ip)): 166 % of control
- T/C (dose: 7.8 mg/kg/injection, schedule: Q03HX008 (sc)): 111 % of control
- T/C (dose: 15.62 mg/kg/injection, schedule: Q03HX008 (ip)): 155 % of control
- T/C (dose: 15.62 mg/kg/injection, schedule: Q03HX008 (sc)): 122 % of control
- T/C (dose: 23.0 mg/kg/injection, schedule: Q03HX008 (sc)): 178 % of control
- T/C (dose: 31.25 mg/kg/injection, schedule: Q03HX008 (ip)): 166 % of control
- T/C (dose: 31.25 mg/kg/injection, schedule: Q03HX008 (sc)): 166 % of control
- T/C (dose: 39.0 mg/kg/injection, schedule: Q01DX009 (sc)): 168 % of control
- T/C (dose: 39.0 mg/kg/injection, schedule: Q01DX015 (ip)): 194 % of control and 197 % of control
- T/C (dose: 39.0 mg/kg/injection, schedule: Q03HX008 (sc)): 210 % of control
- T/C (dose: 62.5 mg/kg/injection, schedule: Q03HX008 (ip)): 611 % of control
- T/C (dose: 62.5 mg/kg/injection, schedule: Q03HX008 (sc)): 611 % of control
- T/C (dose: 65.0 mg/kg/injection, schedule: Q01DX009 (sc)): 189 % of control
- T/C (dose: 65.0 mg/kg/injection, schedule: Q01DX015 (ip)): 236 % of control
- T/C (dose: 65.0 mg/kg/injection, schedule: Q03HX008 (sc)): 278 % of control
- T/C (dose: 108.0 mg/kg/injection, schedule: Q01DX001 (sc)): 111 % of control and 114 % of control
- T/C (dose: 108.0 mg/kg/injection, schedule: Q01DX009 (sc)): 236 % of control
- T/C (dose: 108.0 mg/kg/injection, schedule: Q01DX015 (ip)): 178 % of control and 187 % of control
- T/C (dose: 108.0 mg/kg/injection, schedule: Q03HX008 (sc)): 115 % of control
- T/C (dose: 108.0 mg/kg/injection, schedule: Q07DX003 (ip)): 210 % of control and 218 % of control
- T/C (dose: 108.0 mg/kg/injection, schedule: Q08DX002 (sc)): 173 % of control
- T/C (dose: 108.0 mg/kg/injection, schedule: Q09DX003 (sc)): 154 % of control and 155 % of control
- T/C (dose: 125.0 mg/kg/injection, schedule: Q01DX001 (ip)): 155 % of control
- T/C (dose: 125.0 mg/kg/injection, schedule: Q01DX001 (sc)): 150 % of control
- T/C (dose: 130.0 mg/kg/injection, schedule: Q01DX001 (sc)): 154 % of control and 157 % of control
- T/C (dose: 130.0 mg/kg/injection, schedule: Q04DX003 (sc)): 189 % of control and 197 % of control
- T/C (dose: 180.0 mg/kg/injection, schedule: Q01DX001 (ip)): 183 % of control and 184 % of control
- T/C (dose: 180.0 mg/kg/injection, schedule: Q01DX015 (ip)): 156 % of control and 157 % of control
- T/C (dose: 180.0 mg/kg/injection, schedule: Q03HX008 (sc)): 105 % of control
- T/C (dose: 180.0 mg/kg/injection, schedule: Q07DX003 (ip)): 252 % of control and 253 % of control
- T/C (dose: 180.0 mg/kg/injection, schedule: Q08DX002 (sc)): 215 % of control
- T/C (dose: 180.0 mg/kg/injection, schedule: Q09DX003 (sc)): 244 % of control and 245 % of control
- T/C (dose: 216.0 mg/kg/injection, schedule: Q01DX001 (sc)): 184 % of control and 185 % of control
- T/C (dose: 216.0 mg/kg/injection, schedule: Q04DX003 (sc)): 210 % of control and 216 % of control
- T/C (dose: 250.0 mg/kg/injection, schedule: Q01DX001 (ip)): 205 % of control
- T/C (dose: 250.0 mg/kg/injection, schedule: Q01DX001 (sc)): 177 % of control
- T/C (dose: 256.0 mg/kg/injection, schedule: Q01DX001 (sc)): 192 % of control and 195 % of control
- T/C (dose: 300.0 mg/kg/injection, schedule: Q01DX001 (ip)): 205 % of control
- T/C (dose: 300.0 mg/kg/injection, schedule: Q01DX009 (sc)): 157 % of control
- T/C (dose: 300.0 mg/kg/injection, schedule: Q07DX003 (ip)): 273 % of control and 279 % of control
- T/C (dose: 300.0 mg/kg/injection, schedule: Q08DX002 (sc)): 100 % of control
- T/C (dose: 300.0 mg/kg/injection, schedule: Q09DX003 (sc)): 244 % of control and 247 % of control
- T/C (dose: 320.0 mg/kg/injection, schedule: Q01DX001 (sc)): 212 % of control and 220 % of control
- T/C (dose: 360.0 mg/kg/injection, schedule: Q01DX001 (sc)): 226 % of control and 229 % of control
- T/C (dose: 360.0 mg/kg/injection, schedule: Q04DX003 (sc)): 242 % of control
- T/C (dose: 400.0 mg/kg/injection, schedule: Q01DX001 (sc)): 235 % of control and 249 % of control
- T/C (dose: 500.0 mg/kg/injection, schedule: Q01DX001 (ip)): 242 % of control
- T/C (dose: 500.0 mg/kg/injection, schedule: Q08DX002 (sc)): 121 % of control
- T/C (dose: 500.0 mg/kg/injection, schedule: Q09DX003 (sc)): 116 % of control and 122 % of control
- T/C (dose: 600.0 mg/kg/injection, schedule: Q01DX001 (sc)): 77 % of control
- T/C (dose: 600.0 mg/kg/injection, schedule: Q04DX003 (sc)): 115 % of control and 117 % of control
- T/C (dose: 625.0 mg/kg/injection, schedule: Q01DX001 (sc)): 124 % of control
- T/C (dose: 833.0 mg/kg/injection, schedule: Q01DX001 (ip)): 71 % of control
- T/C (dose: 1000.0 mg/kg/injection, schedule: Q01DX001 (sc)): 63 % of control
